Experimental data taken from patent publication US20070010548A1, “Compounds having inhibitive activity of phosphatidylinositol 3-kinase and methods of use thereof” (ZENTARIS GmbH, priority 2003, published 2007).

Columns and labels:
MA-MB-468 cells = assay: Three dimensional matrix model of tumor cell growth; format: cell-based; conditions: Homo sapiens, read-out: Percent Inhibition of Tumor Cell Viability
Method: PI 3-K inhibitors are assayed for effects on tumor cells grown in three-dimensional matrix that more closely mimics the environment of a tumor than other cell culture models. MA-MB-468 cells are mixed in a matrix solution, such as Matrigel (13D Biosciences) at 2×10 ^6 cells/ml and 100 μl of this mixture added to each well of a 24 well cell culture plate. Each well is 6.5 mm in diameter and 2×10^5 cells are added per well. Once the matrix is solidified, RMPI media containing 10% fetal calf serum and 2 mM L-glutamine is added to each well. After approximately 14 days of culture, the compounds are added to cell media at final concentrations ranging from 10 nM to 100 μM, and the cells are grown in the presence of the compounds for 7 days in RMPI media containing 0.5% fetal calf serum and 20 mM L-glutamine.
Following this treatment, cell growth in the three dimensional matrix can be measured using a cell viability assay such as the CellTiter 96 One Solution Cell Proliferation Assay (Promega, G3582). […] of assay solution is added per well, the cells are incubated for 3 hours. Absorbance at 550 nm is determined for each well and used directly as being equivalent of cell number. In addition, live and dead cells can be distinguished and observed using fluorescence microscopy after staining with Fluorescein diacetate (Sigma), which labels live cells, and propidium iodide (Sigma), which labels dead cells.
The PI 3-K inhibitors of the present invention show anti-proliferative effects in this model of tumor cell growth, as shown by the representative data in Table 6, which compares the anti-proliferative effects of one inhibitor compared to the effects of the benchmark PI 3-K inhibitor LY294002. The PI 3-K inhibitors of the present invention also show enhanced anti-proliferative activity when combined with other cancer drugs, for example paclitaxel or doxorubicin.

[1] = system: phospho-Akt in MDA-MB-468 cells; assay: Phospho-Akt levels in MDA-MB-468 cells (PathScan phospho-Akt ELISA / immunoblotting); format: cell-based, human; conditions: 50 μM, 4 hours, serum-starved MDA-MB-468 cells; DMSO alone = 100%
Method: Because phosphorylation and activation of PKB/Akt is dependent on PI 3-K activity, PI 3-K inhibitors decrease the cellular levels of phospho-Akt. MDA-MB-468 cells show constitutively high levels of phospho-Akt as a result of abnormal activation of PI 3-K signaling.
The effect of treatment with PI 3-K inhibitors on phospho-Akt levels in these cells was determined as follows. Cells were plated into 6-well cell culture dishes at a density of 5×10^5 cells per well in RMPI media containing 10% fetal calf serum and 2 mM L-glutamine. Twenty-four hours later, media was removed and replaced with serum-free RMPI containing 2 mM L-glutamine. The cells were serum-starved overnight.
Compounds were diluted into serum-free media to a final concentration of 50 μM and added to the cells. The cells were incubated in the presence of PI 3-K inhibitors for 4 hours. Phospho-Akt levels were determined using one of the following methods.
To determine phospho-Akt levels using immunoblotting, cells were washed twice with PBS and lysed in ice-cold lysis buffer (1% Triton X-100, 50 mM Hepes pH 7.4, 150 mM NaCl, 1.5mM MgCl2, 1 mM EGTA, 100 mM NaF, 10 mM Sodium Pyrophosphate, 1 mM Na(subscript: 3)VO(subscript: 4), 10% glycerol, InmM phenylmethylsulfonyl fluoride, and 10 ug/ml aprotifin). Total protein concentration was determined using a BCA assay. 30ug of total cell lysate protein was diluted into Laemmli sample buffer and loaded onto a 10% acrylamide gel, subjected to SDS-PAGE, and transferred to a PVDF membrane. The membrane was blocked with 5% bovine serum albumin and then incubated at 4° C. overnight with antibody. The membrane was washed in TBS-T (10 mM Tris-HCl pH 7.4, 150 mM NaCl, and 0.1% Tween-20) and incubated with HRP-conjugated antibody (diluted in 5% milk in TBS-T) at room temperature for 1 h. The membrane was washed extensively and the proteins were visualized by chemiluminscent detection. The compounds effects on phospho-Akt levels were observed as relative differences in the amount of phospho-Akt detected by immunoblotting.
Effects on cellular levels of phospho-Akt following treatment with PI 3-K inhibitors were quantified using the PathScan phospho-Akt ELISA (Cell Signaling Technologies)., a sandwich ELISA for detection of phospho-Akt. The kit was used according to the manufacturer protocol. Absorbance at 450 nm was determined for each sample and used directly as equivalent of phospho-Akt levels.
Percent decreases in phospho-Akt levels were determined by normalizing relative to blank samples (0%/O) and control samples treated with DMSO alone (1 00%).

Row | Compound | Approx. % decrease phospho-Akt relative to controls [1] | also measured
1 | CC1(C)CC(=O)C2=C(C1)Nc1c(c(C(C)(C)C)nn1C(C)(C)C)C2c1ccc(OCc2ccccc2)c(OCc2ccccc2)c1 (centres unmarked) [Compound 963985] | 50% | cytotoxicity at 1 µM (MA-MB-468 cells; Concentration 1 μM): 10%; cytotoxicity at 5 µM (MA-MB-468 cells; Concentration 5 μM): 20%; cytotoxicity at 10 µM (MA-MB-468 cells; Concentration 10 μM): 30%; cytotoxicity at 50 µM (MA-MB-468 cells; Concentration 50 μM): 40%
2 | Cc1ccc(C2C3=C(CC(C)(C)CC3=O)Nc3c2c(C(C)(C)C)nn3-c2ccc(C)cc2)cc1 (centres unmarked) [Compound 964028, 3-t-butyl-4-(4-methylphenyl)-7,7-dimethyl-1-(4-methylphenyl)-4,7,8,9-tetrahydro-1H-pyrazolo[3,4-b]quinolin-5(6H)-one] | 40% | –
3 | COc1ccc(-n2nc(C(C)(C)C)c3c2NC2=C(C(=O)CC(C)(C)C2)C3c2ccccc2Cl)cc1 (centres unmarked) [Compound 964076, 3-t-butyl-4-(2-chlorophenyl)-7,7-dimethyl-1-(4-methoxyphenyl)-4,7,8,9-tetrahydro-1H-pyrazolo[3,4-b]quinolin-5(6H)-one] | 60% | –
4 | COc1ccc(OC)c(C2C3=C(CC(C)(C)CC3=O)Nc3c2c(C(C)(C)C)nn3-c2ccc(C)cc2C)c1 (centres unmarked) [Compound 964232] | 50% | –
5 | COc1ccccc1C1C2=C(CC(C)(C)CC2=O)Nc2c1c(C(C)(C)C)nn2-c1ccc(Cl)c(C)c1 (centres unmarked) [Compound 964247] | 30% | –
6 | CC1(C)CC(=O)C2=C(C1)Nc1c(c(C(C)(C)C)nn1-c1ccc(Cl)c(Cl)c1)C2c1cccc(OCc2ccccc2)c1 (centres unmarked) [Compound 964260] | 40% | –
7 | CC1(C)CC(=O)C2=C(C1)Nc1c(c(-c3ccccc3)nn1-c1cccc(F)c1)C2c1ccc(C(F)(F)F)cc1 (centres unmarked) [Compound 964661] | 40% | –
